Measured values: US20230099344A1, “COMPOUNDS AND METHODS FOR THE TARGETED DEGRADATION OF IRAK-4” (Arvinas Operations, Inc., priority 2021, published 2023)

These compounds were tested against T1, IRAK-4 (Homo sapiens, UniProt Q9NWZ3) (assay: IRAK-4 ELISA, PBMC degradation). Details: treated overnight.
T1 sequence (Q9NWZ3 1-460): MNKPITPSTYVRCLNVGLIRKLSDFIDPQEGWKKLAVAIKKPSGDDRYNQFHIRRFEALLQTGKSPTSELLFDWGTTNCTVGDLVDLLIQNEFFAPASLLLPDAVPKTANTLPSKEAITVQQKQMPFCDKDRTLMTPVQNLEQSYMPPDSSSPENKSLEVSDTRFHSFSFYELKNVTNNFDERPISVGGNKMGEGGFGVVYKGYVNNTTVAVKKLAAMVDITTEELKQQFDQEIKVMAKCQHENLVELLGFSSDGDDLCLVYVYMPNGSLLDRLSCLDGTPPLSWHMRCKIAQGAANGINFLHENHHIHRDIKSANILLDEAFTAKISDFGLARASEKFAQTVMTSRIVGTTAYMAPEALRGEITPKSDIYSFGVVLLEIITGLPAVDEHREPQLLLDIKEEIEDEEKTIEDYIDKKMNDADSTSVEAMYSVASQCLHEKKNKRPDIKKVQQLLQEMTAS
Format: cell-based
Set-up: endogenous in cells; host or cells: PBMC
How it was run: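 ELISA quantification of cellular IRAK-4 after compound treatment overnight; PBMC were plated at 2×10^6/ml, OCI-Ly10 at 1×10^6/ml.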

DC50 [nM] | Dmax [%] | PBMC DC90 | SMILES
≥ 10 | 80 to 90 | D (D represents a DC90 value ≥50 nM) | O=C1CCC(N2Cc3cc(N4CC(N5CCC(N6Cc7cc(NC(=O)c8cnn9cccnc89)c(N8CCOCC8)nc7C6=O)CC5)C4)ccc3C2=O)C(=O)N1 (stereo not drawn) [Example 404, N-[6-[1-[1-[2-(2,6-dioxo-3-piperidyl)-1-oxo-isoindolin-5-yl]azetidin-3-yl]-4-piperidyl]-2-morpholino-7-oxo-5H-pyrrolo[3,4-b]pyridin-3-yl]pyrazolo[1,5-a]pyrimidine-3-carboxamide]
< 1 | ≥ 90 | A (A represents a DC90 value <10.0 nM) | CN(C1CCC(N2Cc3cc(NC(=O)c4cnn5cccnc45)c(OC4CC4)cc3C2=O)CC1)C1CCN(c2ccc3c(c2)C(=O)N(C2CCC(=O)NC2=O)C3=O)CC1 (stereo not drawn) [Example 342]
< 1 | ≥ 90 | A (A represents a DC90 value <10.0 nM) | O=C1CCC(N2C(=O)c3ccc(N4CCO[C@H](CN5CCC(n6cc7cc(NC(=O)c8cnn9cccnc89)c(OCC8CC8)cc7n6)CC5)C4)cc3C2=O)C(=O)N1 (stereo partly drawn) [Example 177]
< 1 | ≥ 90 | A (A represents a DC90 value <10.0 nM) | O=C1CCC(N2C(=O)c3ccc(N4CCC(N5CCC(n6cc7cc(NC(=O)c8cnn9cccnc89)c(OCC8CC8)cc7n6)CC5)CC4)cc3C2=O)C(=O)N1 (stereo not drawn) [Example 170]
< 1 | ≥ 90 | A (A represents a DC90 value <10.0 nM) | CN(C1CCC(N2Cc3cc(NC(=O)c4cnn5cccnc45)c(OCC4CC4)cc3C2=O)CC1)C1CN(c2ccc3c(c2)C(=O)N(C2CCC(=O)NC2=O)C3=O)C1 (stereo not drawn) [Example 345]
< 1 | ≥ 90 | A (A represents a DC90 value <10.0 nM) | O=C1CCC(N2C(=O)c3ccc(N4CCO[C@@H](CN5CCC(n6cc7cc(NC(=O)c8cnn9cccnc89)c(OCC8CC8)cc7n6)CC5)C4)cc3C2=O)C(=O)N1 (stereo partly drawn) [Example 176]
< 1 | ≥ 90 | A (A represents a DC90 value <10.0 nM) | COc1cc(N2CCC(CN3CCC(n4cc5cc(NC(=O)c6cnn7cccnc67)c(OCC6CC6)cc5n4)CC3)CC2)cc2c1C(=O)N(C1CCC(=O)NC1=O)C2=O (stereo not drawn) [Example 133]
< 1 | ≥ 90 | A (A represents a DC90 value <10.0 nM) | CN(C1CCC(n2cc3cc(NC(=O)c4cnn5cccnc45)c(OCC4CC4)cc3n2)CC1)C1CCN(c2ccc3c(c2)C(=O)N(C2CCC(=O)NC2=O)C3=O)CC1 (stereo not drawn) [Example 323]

SMILES | DC50 [nM] | Dmax [%] | PBMC DC90
O=C1CCC(N2C(=O)c3ccc(N4CCC[C@H](CN5CCC(n6cc7cc(NC(=O)c8cnn9cccnc89)c(OCC8CC8)cc7n6)CC5)C4)cc3C2=O)C(=O)N1 (stereo partly drawn) [Example 174] | 1 to 5 | ≥ 90 | B (B represents a DC90 value ≥10.0 nM and <25.0 nM)
CC(C)Oc1cc2c(cc1NC(=O)c1cnn3cccnc13)CN(C1CCC(N(CC(F)F)C3CN(c4ccc5c(c4)C(=O)N(C4CCC(=O)NC4=O)C5=O)C3)CC1)C2=O (stereo not drawn) [Example 331] | 1 to 5 | ≥ 90 | B (B represents a DC90 value ≥10.0 nM and <25.0 nM)
COc1cc(CCN2CCC(N3Cc4cc(NC(=O)c5cnn6cccnc56)c(OC(C)C)cc4C3=O)CC2)cc2c1C(=O)N(C1CCC(=O)NC1=O)C2 (stereo not drawn) [Example 11] | 1 to 5 | ≥ 90 | C (C represents a DC90 value ≥25.0 nM and <50 nM)
